Test results from US6958331B1, “Bradykinin receptor antagonists” (Novartis AG, priority 1999, dated 2005).

Biological target: T1, human bradykinin B1 receptor (Homo sapiens, UniProt P46663)
T1 construct: expressed in transfected cells; membranes
T1 sequence (P46663 1-353): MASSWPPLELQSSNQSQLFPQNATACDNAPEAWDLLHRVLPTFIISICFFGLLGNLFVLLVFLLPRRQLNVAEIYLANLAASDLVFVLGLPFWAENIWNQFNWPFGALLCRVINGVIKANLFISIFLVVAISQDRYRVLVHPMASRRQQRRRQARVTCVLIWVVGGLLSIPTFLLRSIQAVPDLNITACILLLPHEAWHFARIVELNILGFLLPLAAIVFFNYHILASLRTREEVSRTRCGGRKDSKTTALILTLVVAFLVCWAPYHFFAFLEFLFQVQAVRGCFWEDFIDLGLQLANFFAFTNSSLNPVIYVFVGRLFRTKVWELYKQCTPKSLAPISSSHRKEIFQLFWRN
Assay: Test I: Bradykinin Receptor Binding Assay ([3H]desArg10-kallidin displacement, HEK 293 membranes)
Conditions: statement in words
Description: This cDNA is sequenced and subcloned into pcDNA3 (Clontech) and used to generate a cell-line which expresses the human bradykinin B1 receptor.
Cells are grown in Mininum Essential Medium with Eade's Salts (GIBCO) supplemented with 2 mM L-glutamine, 100 units/ml penicillin, 100 μg/ml streptomycin, 1% nonessential amino acids and 10% myodone foetal calf serum (GIBCO) in a humidified atmosphere with 5% CO2 at 37° C.
One 175 cm^2 flask with approximately 50% confluent cells is transfected with approximately 30 μg/ml HB1-pcDNA3 DNA using the calcium phosphate precipitate method of transfection. The flask of transfected cells is split 1:3 on day 2 post transfecdon to prevent overgrowth. The following day the cells are split 1:5 and selection in 700 μg/ml G418 begins. The selective medium is changed every 3-4 days. When distinct G418 resistant colonies of transfected cells are seen, approximately 4 weeks after transfection, the cells are cloned by limiting dilution and assayed for binding of [^3H]desArg^10-kallidin. […]
Specific binding to the bradykinin B1 receptor is defined as the difference between that found in total bound tubes and that found in non-specific binding tubes. […] Mimoscintillant-40 Liquid scintillant is added to the filters and radioactivity bound is determined in a Canberra Packard Topcount scintillation counter. […]

## CC(C)N1CCN(C(=O)C2CCN(S(=O)(=O)c3ccc(NCC(c4ccccc4)c4ccccc4)c(C(=O)N4CCOCC4)c3)CC2)CC1 [Example 1, {2-(2,2-diphenyl-ethylamino)-5-[4-(4-Isopropyl-piperazine-1-carbonyl)-piperidine-1-sulfonyl]-pheny}-morpholin-4-yl-methanone]
  active at the human B1 bradykinin receptor: active
